Laboratory results published in US11028054B2, “1, 4, 6-trisubstituted-2-alkyl-1H-benzo[d]imidazole derivatives as dihydroorotate oxygenase inhibitors” (Merck Patent GmbH, priority 2017, dated 2021).

Tests used:
[1] = biological target: T1, DHODH (Homo sapiens (Human), UniProt Q02127); assay: Measurement of DHODH inhibitory enzyme activity (coupled DCIP reduction assay); format: biochemical
Source text: Measurement of DHODH Inhibitory Enzyme Activity (In Vitro Assays)
The DHODH activity assay is a coupled enzyme assay in which oxidation of DHO and subsequent reduction of ubiquinone are stoichiometrically equivalent to the reduction of DCIP ([…]). The reduction of DCIP is accompanied by a loss of absorbance at 610 nm.
Reagents used: L-Dihydroorotic acid, Sigma, D7128, 2,6-Dichloroindophenol sodium salt hydrate, sigma, D1878 Dimethyl sulfoxide (DMSO), spectroscopic grade purchased from Spectrochem, cat no. 0704209, B. no.—3183650 Decylubiquinone, Sigma, D7911.
Preparation of Solutions/Reagents:
Buffer Preparation: 50 mM tris HCl, 150 mM KCl, and pH 8.0, 0.8% triton.
L-Dihydroorotic acid stock solution of 20 mM in buffer.
2, 6-Dichloroindophenol Sodium salt hydrate stock solution of 20 mM in buffer.
Decylubiquinone stock solution of 20 mM in buffer.
5 μL of Dimethyl sulfoxide or a compound of formula (I) in DMSO solution was added to the wells of a 96 well plate. Compounds of formula (I) were measured at 10 μM.
Protein along with buffer was added, so that the total volume including the DMSO was 87 μL. Compound and protein were incubated for half an hour at room temperature after mixing. 5 μL of 20 mM solution of L-Dihydroorotic acid, 5 μL of 2 mM solution of Decylubiquinone and 3 μL of 2 mM solution of 2, 6-Dichloroindophenol sodium salt hydrate were added to the above solution (total assay volume 100 μL). The mixture was stirred for 2 min and absorbance was recorded at every 10 min at 610 nanometers.
Percent inhibition is calculated as follows 100*{(Abs610 for reaction containing compound)−(Abs610 for positive control) (Abs610 for no enzyme reaction)−(Abs610 for positive control) Reaction containing compound has compound, buffer, enzyme and substrates Positive control contains DMSO, buffer, enzyme and substrates No Enzyme reaction contains DMSO, buffer and substrates IC50 determination: A 2 mM DMSO stock solution of the selected 1, 4, 6-trisubstituted-2-alkyl-1H-benzo[d]imidazole derivatives of formula (I) of the present invention to be examined was prepared. Subsequent ⅓rd dilutions were made as follows:
5 μL of each stock of compound of formula (I) (solution indicated in column 4 of table) was used for each 100 μL assay. Therefore, 5 μL of the 2 mM stock provided 100 μL of 100 μM solution of compound of formula (I), when made up with buffer, protein and substrate. See also: Ulrich et al. (2001) Eur. J. Biochem. 268, 1861-1868.

[2] = system: Jurkat cells; assay: Measurement of cell proliferation activity (Jurkat cell), XTT assay; format: cell-based; conditions: Homo sapiens, 72 hrs incubation, cell viability by XTT assay
Source text: Measurement of Cell Proliferation Activity (Jurkat Cell)
Jurkat cells are an immortalized cell line of T lymphocyte cells, which are used to study acute T cell leukaemia, T cell signalling, and the expression of various chemokine receptors susceptible to viral entry, particularly HIV. Jurkat cells are also useful in science because of their ability to produce interleukin 2. Their primary use, however, is to determine the mechanism of differential susceptibility of cancers to drugs and radiation.
Jurkat cells are cultured in RPMI medium with 10% FBS, and seeded at a density of 100,000 cells per well in a 96 well plate. Compound is added at different concentrations (typically starting at 10 μM followed by half log dilutions for a total of 8-10 concentrations). Each concentration is tested in triplicate and DMSO concentration is kept constant at 0.25-0.5%. The cells are then incubated in a CO2 incubator at 37° C. for 72 hrs before determining cell viability using XTT assay. Cell viability is plotted as a function of concentration and EC50 is determined using GraphPad Prism software
• Roehm, N et al [1991] An improved colorimetric assay for cell proliferation and viability utilizing the tetrazolium salt XTT. J. Immunol. Methods 142:257-265. Reagents: Roswells park memorial institute's medium, (RPMI-1640 complete media) pH-7.4±0.2 (Sigma R6504). • Dimethyl sulfoxide (DMSO), spectroscopic grade purchased from Spectrochem, (cat no. 0704209, B. no.—3183650 MEM Cat. No. M0268, Sigma). Fetal Bovine Serum (Cat. No. F9665, Sigma Aldrich). XTT sodium salt (Sigma Cat. No. X4251). PMS (Sigma Cat. No. 68600). Preparation of Solutions/Reagents
RPMI media supplemented with antibiotics, 10% FBS, Sodium Pyruvate and NEA (non essential amino acids).
XTT—A freshly prepared solution of XTT is made in the growth medium, with a final concentration of 1 mg/ml.
PMS—Stock is prepared with 1×PBS at 0.383 mg/ml and stored in aliquots at −20° C. The XTT solution at 20 μl/ml was added just before use.
Test solution—Serially diluted DMSO solutions are further diluted with media to 2× the required concentration in well.
Culture Jurkat cells in T-25 flasks at a density of 0.2×10^6/ml 2-3 days before the day of experiment set up.
Centrifuge Jurkat T-cell suspension at 1200 rpm for 10 minutes and resuspend cells again in fresh RPMI medium with 10% FBS. Count the cells and dilute suspension to a density of 2×10^6 cells/ml. Seed 50 μL of this suspension in each well of a 96 well plate (100,000 cells per well). Keep the edges of the plate empty to avoid evaporation. […]
XTT assay: to each well, add 50 μL of 1 mg/ml XTT solution with 20 μl of PMS/mL. Read the plates after 2 hours at 465 nm using the spectrophotometer. XTT reading for media without cells is used as background reading. […]

[3] = biological target: T1, DHODH; conditions: DHODH versus protein tyrosine kinase; cited from earlier work

T1 sequence (Q02127 whole entry): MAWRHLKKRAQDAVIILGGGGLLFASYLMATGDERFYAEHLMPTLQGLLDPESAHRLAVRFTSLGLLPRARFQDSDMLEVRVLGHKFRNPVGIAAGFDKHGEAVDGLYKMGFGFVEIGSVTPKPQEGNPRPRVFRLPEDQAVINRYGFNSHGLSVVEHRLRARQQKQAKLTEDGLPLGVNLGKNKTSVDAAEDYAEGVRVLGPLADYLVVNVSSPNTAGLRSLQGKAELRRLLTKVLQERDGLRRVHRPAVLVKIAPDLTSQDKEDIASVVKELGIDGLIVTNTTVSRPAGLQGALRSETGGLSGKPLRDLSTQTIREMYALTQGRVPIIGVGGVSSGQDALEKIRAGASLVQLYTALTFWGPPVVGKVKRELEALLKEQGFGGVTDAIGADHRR

Compound | IC50 [1] [µM] | EC50 [2] [µM] | fold greater inhibitor of DHODH than of protein tyrosine kinase [3]
Cc1nc2c(C(=O)O)cc(-c3ccc(-c4ccccc4F)cc3)cc2[nH]1 [Example 5, 6-(2'-fluoro-[1,1'-biphenyl]-4-yl)-2-methyl-1H-benzo[d]imidazole-4-carboxylic acid] | 0.01 to 0.099 | 0.049 | –
COc1ccccc1-c1ccc(-c2cc(C(=O)O)c3nc(C)[nH]c3c2)cc1 [Example 18, 6-(2'-methoxy-[1,1'-biphenyl]-4-yl)-2-methyl-1H-benzo[d]imidazole-4-carboxylic acid] | 0.01 to 0.099 | 0.111 | –
C/C(O)=C(\C#N)C(=O)Nc1ccc(C(F)(F)F)cc1 [Teriflunomide] | – | – | 100-1,000 fold
Cc1nc2c(C(=O)O)cc(-c3ccc(-c4ccccc4)cc3)cc2[nH]1 [Example 1, 6-([1,1'-biphenyl]-4-yl)-2-methyl-1H-benzo[d]imidazole-4-carboxylic acid] | 0.01 to 0.099 | 0.133 | –
Cc1nc2c(C(=O)O)cc(-c3ccc(-c4cccc(CNC(C)(C)C)c4)cc3)cc2[nH]1 [Example 39, 6-(3'-((tert-butylamino)methyl)-[1,1'-biphenyl]-4-yl)-2-methyl-1H-benzo[d]imidazole-4-carboxylic acid.2,2,2-trifluoroacetic acid] | 0.01 to 0.099 | – | –
COc1cccc(-c2ccc(-c3cc(C(=O)O)c4nc(C)[nH]c4c3)cc2)c1 [Example 10, 6-(3'-methoxy-[1,1'-biphenyl]-4-yl)-2-methyl-1H-benzo[d]imidazole-4-carboxylic acid] | 0.01 to 0.099 | 0.032 | –
Cc1nc2c(C(=O)O)cc(-c3ccc(-c4cccc(O)c4)cc3)cc2[nH]1 [Example 16, 6-(3'-hydroxy-[1,1'-biphenyl]-4-yl)-2-methyl-1H-benzo[d]imidazole-4-carboxylic acid] | 0.01 to 0.099 | – | –
